Legend:
Type in all cases: in vivo
[1] = system: barnyardgrass (Echinochloa crus-galli); assay: Test A pre-/postemergence plant response
Description: (§1) Seeds of barnyardgrass (Echinochloa crus-galli), large crabgrass (Digitaria sanguinalis), giant foxtail (Setaria faberii), morningglory (Ipomoea spp.), pigweed (Amaranthus retroflexus), velvetleaf (Abutilon theophrasti), wheat (Triticum aestivum) and corn (Zea mays) were planted into a blend of loam soil and sand and treated preemergence with a directed soil spray using test chemicals formulated in a non-phytotoxic solvent mixture which included a surfactant. At the same time these species were also treated with postemergence applications of test compounds formulated in the same manner.
(§2) Plants ranged in height from two to ten cm and were in the one- to two-leaf stage for the postemergence treatment. Treated plants and untreated controls were maintained in a greenhouse for approximately ten days, after which time all treated plants were compared to untreated controls and visually evaluated for injury. Plant response ratings, summarized in Table A, are based on a 0 to 100 scale where 0 is no effect and 100 is complete control. A dash (-) response means no test result.

corn (Zea mays) = assay: Test A pre-/postemergence plant response
Description: as §1, §2

[2] = system: giant foxtail (Setaria faberii); assay: Test A pre-/postemergence plant response
Description: as §1, §2

[3] = system: large crabgrass (Digitaria sanguinalis); assay: Test A pre-/postemergence plant response
Description: as §1, §2

[4] = system: morningglory (Ipomoea spp.); assay: Test A pre-/postemergence plant response
Description: as §1, §2

[5] = system: pigweed (Amaranthus retroflexus); assay: Test A pre-/postemergence plant response
Description: as §1, §2

[6] = system: velvetleaf (Abutilon theophrasti); assay: Test A pre-/postemergence plant response
Description: as §1, §2

[7] = system: wheat (Triticum aestivum); assay: Test A pre-/postemergence plant response
Description: as §1, §2

[8] = system: barnyardgrass (Echinochloa crus-galli); assay: Test B flooded paddy test; details: for Plant response rating, Barnyardgrass: Flood (flooded paddy test), 13 to 15 days; for Barnyardgrass plant response rating: Flood, 31 g ai/ha, scale 0 to 100 (0 no effect, 100 complete control); for Plant response rating, Flood, Barnyardgrass: 250 g ai/ha, flooded paddy test, visual rating on 0 to 100 scale (0 no effect, 100 complete control) after 13 to 15 days
Description: (§3) Plant species in the flooded paddy test consisted of rice (Oryza sativa), umbrella sedge (Cyperus difformis), ducksalad (Heteranthera limosa) and barnyardgrass (Echinochloa crus-galli) grown to the 2-leaf stage for testing. At the time of treatment, test pots were flooded with water to 3 cm above the soil surface, treated by application of test compounds directly to the paddy water, and then maintained at that water depth for the duration of the test.
(§4) Treated plants and controls were maintained in a greenhouse for 13 to 15 days, after which time all treated plants were visually evaluated and compared to controls. Plant response ratings, summarized in Table B, are based on a scale of 0 to 100 where 0 is no effect and 100 is complete control. A dash (-) response means no test result.

[9] = system: ducksalad (Heteranthera limosa); assay: Test B flooded paddy test; details: for Plant response rating, Ducksalad: Flood (flooded paddy test), 13 to 15 days; for Ducksalad plant response rating: Flood, 31 g ai/ha, scale 0 to 100 (0 no effect, 100 complete control); for Plant response rating, Flood, Ducksalad: 250 g ai/ha, flooded paddy test, visual rating on 0 to 100 scale (0 no effect, 100 complete control) after 13 to 15 days
Description: as §3, §4

rice (Oryza sativa) = assay: Test B flooded paddy test; details: for Plant response rating, Rice: Flood (flooded paddy test), 13 to 15 days; for Rice plant response rating: Flood, 31 g ai/ha, scale 0 to 100 (0 no effect, 100 complete control); for Plant response rating, Flood, Rice: 250 g ai/ha, flooded paddy test, visual rating on 0 to 100 scale (0 no effect, 100 complete control) after 13 to 15 days
Description: as §3, §4

[10] = system: umbrella sedge (Cyperus difformis); assay: Test B flooded paddy test; details: for Plant response rating, Sedge, Umbrella: Flood (flooded paddy test), 13 to 15 days; for Sedge, Umbrella plant response rating: Flood, 31 g ai/ha, scale 0 to 100 (0 no effect, 100 complete control); for Plant response rating, Flood, Sedge, Umbrella: 250 g ai/ha, flooded paddy test, visual rating on 0 to 100 scale (0 no effect, 100 complete control) after 13 to 15 days
Description: as §3, §4

[11] = Postemergence, 125 g ai/ha, 0 to 100 scale where 0 is no effect and 100 is complete control
[12] = Postemergence, 500 g ai/ha, visual injury, 0 to 100 scale (0 no effect, 100 complete control), approx. ten days
[13] = Preemergence, 125 g ai/ha, 0 to 100 scale, 0 = no effect, 100 = complete control
[14] = Preemergence, 500 g ai/ha, 0 to 100 scale, 0 = no effect, 100 = complete control
[15] = 125 g ai/ha, scale 0 to 100, 0 is no effect, 100 is complete control
[16] = Postemergence, 125 g ai/ha, visual injury, 0 to 100 scale (0 no effect, 100 complete control), approx. ten days
[17] = Postemergence, 500 g ai/ha, 0 to 100 scale, 0 = no effect, 100 = complete control, approx. ten days
[18] = Preemergence, 500 g ai/ha, visual injury, 0 to 100 scale (0 no effect, 100 complete control), approx. ten days
[19] = 62 g ai/ha, scale 0 to 100, 0 is no effect, 100 is complete control
[20] = 62 g ai/ha, scale of 0 to 100 where 0 is no effect and 100 is complete control

## Cc1cc(F)ccc1-n1c(-c2cccc(Cl)c2)ncc(C(=O)C2=C(O)CCCC2=O)c1=O [Compound 167]
[1]; [11]
  Plant response rating, Barnyardgrass: 60
[1]; [12]
  Barnyardgrass plant response rating: 100
[1]; [13]
  Plant response rating, Barnyardgrass: 0
[1]; [14]
  Plant response rating, Barnyardgrass: 30
Corn (Zea mays); [11]
  Plant response rating, Corn: 30
Corn (Zea mays); [12]
  Corn plant response rating: 30
Corn (Zea mays); [13]
  Plant response rating, Corn: 0
Corn (Zea mays); [14]
  Plant response rating, Corn: 0
[2]; [11]
  Plant response rating, Foxtail, Giant: 90
[2]; [12]
  Foxtail, Giant plant response rating: 90
[2]; [13]
  Plant response rating, Foxtail, Giant: 10
[2]; [14]
  Plant response rating, Foxtail, Giant: 50
[3]; [11]
  Plant response rating, Crabgrass, Large: 60
[3]; [12]
  Crabgrass, Large plant response rating: 90
[3]; [13]
  Plant response rating, Crabgrass, Large: 20
[3]; [14]
  Plant response rating, Crabgrass, Large: 90
[4]; [11]
  Plant response rating, Morningglory: 60
[4]; [12]
  Morningglory plant response rating: 100
[4]; [13]
  Plant response rating, Morningglory: 0
[4]; [14]
  Plant response rating, Morningglory: 0
[5]; [11]
  Plant response rating, Pigweed: 90
[5]; [12]
  Pigweed plant response rating: 100
[5]; [13]
  Plant response rating, Pigweed: 10
[5]; [14]
  Plant response rating, Pigweed: 90
[6]; [11]
  Plant response rating, Velvetleaf: 100
[6]; [12]
  Velvetleaf plant response rating: 100
[6]; [13]
  Plant response rating, Velvetleaf: 70
[6]; [14]
  Plant response rating, Velvetleaf: 100
[7]; [11]
  Plant response rating, Wheat: 0
[7]; [12]
  Wheat plant response rating: 0
[7]; [13]
  Plant response rating, Wheat: 0
[7]; [14]
  Plant response rating, Wheat: 0
[8]; [15]
  Plant response rating, Barnyardgrass: 20
[8]
  Barnyardgrass plant response rating: 0
[9]; [15]
  Plant response rating, Ducksalad: 70
[9]
  Ducksalad plant response rating: 0
Rice (Oryza sativa); [15]
  Plant response rating, Rice: 0
Rice (Oryza sativa)
  Rice plant response rating: 0
[10]; [15]
  Plant response rating, Sedge, Umbrella: 60
[10]
  Sedge, Umbrella plant response rating: 20

## Cc1cccc(C)c1-n1c(-c2ccccc2)ncc(C(=O)C2=C(O)CCCC2=O)c1=O [Compound 31]
[1]; [16]
  Barnyardgrass plant response rating: 10
[1]; [17]
  Plant response rating, Barnyardgrass: 80
[1]; [13]
  Plant response rating, Barnyardgrass: 0
[1]; [18]
  Plant response rating, Barnyardgrass: 40
Corn (Zea mays); [16]
  Corn plant response rating: 0
Corn (Zea mays); [17]
  Plant response rating, Corn: 20
Corn (Zea mays); [13]
  Plant response rating, Corn: 0
Corn (Zea mays); [18]
  Plant response rating, Corn: 0
[2]; [16]
  Foxtail, Giant plant response rating: 70
[2]; [17]
  Plant response rating, Foxtail, Giant: 90
[2]; [13]
  Plant response rating, Foxtail, Giant: 0
[2]; [18]
  Plant response rating, Foxtail, Giant: 40
[3]; [16]
  Crabgrass, Large plant response rating: 50
[3]; [17]
  Plant response rating, Crabgrass, Large: 90
[3]; [13]
  Plant response rating, Crabgrass, Large: 0
[3]; [18]
  Plant response rating, Crabgrass, Large: 90
[4]; [16]
  Morningglory plant response rating: 20
[4]; [17]
  Plant response rating, Morningglory: 70
[4]; [13]
  Plant response rating, Morningglory: 0
[4]; [18]
  Plant response rating, Morningglory: 50
[5]; [16]
  Pigweed plant response rating: 70
[5]; [17]
  Plant response rating, Pigweed: 100
[5]; [13]
  Plant response rating, Pigweed: 40
[5]; [18]
  Plant response rating, Pigweed: 80
[6]; [16]
  Velvetleaf plant response rating: 100
[6]; [17]
  Plant response rating, Velvetleaf: 100
[6]; [13]
  Plant response rating, Velvetleaf: 10
[6]; [18]
  Plant response rating, Velvetleaf: 70
[7]; [16]
  Wheat plant response rating: 0
[7]; [17]
  Plant response rating, Wheat: 0
[7]; [13]
  Plant response rating, Wheat: 0
[7]; [18]
  Plant response rating, Wheat: 0
[8]
  Plant response rating, Flood, Barnyardgrass: 0
[8]; [19]
  Plant response rating, Barnyardgrass: 0
[9]
  Plant response rating, Flood, Ducksalad: 75
[9]; [19]
  Plant response rating, Ducksalad: 60
Rice (Oryza sativa)
  Plant response rating, Flood, Rice: 0
Rice (Oryza sativa); [19]
  Plant response rating, Rice: 0
[10]
  Plant response rating, Flood, Sedge, Umbrella: 75
[10]; [19]
  Plant response rating, Sedge, Umbrella: 60

## CCn1c(-c2cccc(F)c2)ncc(C(=O)C2=C(O)CCCC2=O)c1=O [Compound 124]
[1]; [11]
  Plant response rating, Barnyardgrass: 40
[1]; [17]
  Plant response rating, Barnyardgrass: 90
[1]; [13]
  Plant response rating, Barnyardgrass: 20
[1]; [18]
  Plant response rating, Barnyardgrass: 60
Corn (Zea mays); [11]
  Plant response rating, Corn: 0
Corn (Zea mays); [17]
  Plant response rating, Corn: 20
Corn (Zea mays); [13]
  Plant response rating, Corn: 0
Corn (Zea mays); [18]
  Plant response rating, Corn: 0
[2]; [11]
  Plant response rating, Foxtail, Giant: 50
[2]; [17]
  Plant response rating, Foxtail, Giant: 70
[2]; [13]
  Plant response rating, Foxtail, Giant: 10
[2]; [18]
  Plant response rating, Foxtail, Giant: 40
[3]; [11]
  Plant response rating, Crabgrass, Large: 70
[3]; [17]
  Plant response rating, Crabgrass, Large: 90
[3]; [13]
  Plant response rating, Crabgrass, Large: 60
[3]; [18]
  Plant response rating, Crabgrass, Large: 90
[4]; [11]
  Plant response rating, Morningglory: 100
[4]; [17]
  Plant response rating, Morningglory: 100
[4]; [13]
  Plant response rating, Morningglory: 60
[4]; [18]
  Plant response rating, Morningglory: 80
[5]; [11]
  Plant response rating, Pigweed: 90
[5]; [17]
  Plant response rating, Pigweed: 100
[5]; [13]
  Plant response rating, Pigweed: 100
[5]; [18]
  Plant response rating, Pigweed: 100
[6]; [11]
  Plant response rating, Velvetleaf: 100
[6]; [17]
  Plant response rating, Velvetleaf: 100
[6]; [13]
  Plant response rating, Velvetleaf: 70
[6]; [18]
  Plant response rating, Velvetleaf: 100
[7]; [11]
  Plant response rating, Wheat: 0
[7]; [17]
  Plant response rating, Wheat: 0
[7]; [13]
  Plant response rating, Wheat: 0
[7]; [18]
  Plant response rating, Wheat: 0
[8]
  Plant response rating, Flood, Barnyardgrass: 30
  Barnyardgrass plant response rating: 0
[8]; [20]
  Plant response rating, Barnyardgrass: 0
[8]; [15]
  Plant response rating, Barnyardgrass: 0
[9]
  Plant response rating, Flood, Ducksalad: 0
  Ducksalad plant response rating: 0
[9]; [20]
  Plant response rating, Ducksalad: 0
[9]; [15]
  Plant response rating, Ducksalad: 0
Rice (Oryza sativa)
  Plant response rating, Flood, Rice: 20
  Rice plant response rating: 0
Rice (Oryza sativa); [20]
  Plant response rating, Rice: 15
Rice (Oryza sativa); [15]
  Plant response rating, Rice: 20
[10]
  Plant response rating, Flood, Sedge, Umbrella: 40
  Sedge, Umbrella plant response rating: 0
[10]; [20]
  Plant response rating, Sedge, Umbrella: 0
[10]; [15]
  Plant response rating, Sedge, Umbrella: 20
